In brackets after ≈: the same amount, converted by molar mass. Several values for one entry are separate records, joined by “and”; a condition that tells them apart may be missing. Identical values can stand only once.
What was measured:
[1] = tested on: Clostridium sporogenes (ATCC 8075); experiment: Mediated chronocoulometric respiration assay (ferricyanide + DCIP, anaerobic); assay type: cell-based; conditions: for Mediated Chronocoulometric Respiratory Activity Remaining, Percent: average of two measurements, 20 min + 20 min at 37 C under nitrogen
Procedure: This organism was chosen as a typical gram-positive, obligate anaerobe. Growth under anaerobic conditions was accomplished using a similar medium to that used for E. coli except that the concentrations of yeast extract and tryptone were doubled and the concentration of glucose was five-fold lower for the C. sporogenes growth. Assay conditions were the same as in Example 2, with the following exceptions. The incubation of 20 μL of the bacterial suspension with 130 μL of either the blank buffer or the chloramphenicol or lysozyme solution was done for 20 min at 37 C. Mediator solution (150 μL) containing 0.10 M ferricyanide and 10 μM 2,6-dichlorophenolindophenol (DCIP) was then added and the mixture was allowed to incubate for another 20 min at 37 C, giving final concentrations of 0.050 M ferricyanide and 5 μM DCIP, respectively. All manipulations were performed under a stream of nitrogen, to ensure the absence of oxygen, which is known to inhibit the growth of C. sporogenes. Measurement by chronocoulometry was performed in an identical manner as in Example 2.

E. coli JM105 [2] = experiment: Chronocoulometric mediated respiration assay (ferricyanide); assay type: cell-based
Procedure: At this time, a platinum disk working electrode, Ag/AgCl reference electrode and a stainless steel auxiliary electrode are inserted, and a potential of +0.50 V is applied using a potentiostat. The measured current is integrated over time to produce a plot of total charge against time. The change in total charge is measured between 60 and 120 seconds after the potential is applied. The same procedures for E. coli growth, incubation with ferricyanide and antibiotic, and measurement were used in this Example as were used in Example 2. One antibiotic was studied for the effect of concentration, and this was chloramphenicol.

[3] = tested on: Clostridium sporogenes (ATCC 8075); conditions: see Bergey; cited from earlier work
E. coli JM105 [4] = experiment: Integrated current (charge) measurement after incubation with lysozyme or EDTA; assay type: cell-based; conditions: for Charge: single measurements, charge between 60 and 120 s
Procedure: E. coli JM105 was grown in the same manner as in Example 1. The assay procedure used to determine the effect of lysozyme on mediated electrochemical respiration rate was as follows. […] Ferricyanide solution (270 μL) was then added so that the final ferricyanide concentration was 50 mM. These solutions were incubated at 37 C for 10 min. Each sample was then analyzed electrochemically using a Pt working electrode, Ag/AgCl reference electrode and a stainless steel auxilliary electrode, with an applied potential of +0.500 V. The current measured at the working electrode was integrated over the time between 60 and 120 seconds. These experiments were repeated to determine average values of integrated current (charge). The effect of ethylenediaminetetraacetate (EDTA) on electrochemical response was investigated in a similar manner. […] The samples were incubated 10 min at 37 C, and the electrochemical analysis was done as described above for lysozyme.

## O=C(N[C@H](CO)[C@H](O)c1ccc([N+](=O)[O-])cc1)C(Cl)Cl [Chloramphenicol]
[1]; final concentration 5.00 mM
  Mediated Chronocoulometric Respiratory Activity Remaining, Percent: 24%
E. coli JM105 [2]; Escherichia coli, JM105, from the concentration series of Table 5
  IC50: 48 µM
E. coli JM105 [2]; Escherichia coli, JM105, from the concentration series of Table 5, read-out: minimum inhibitory concentration
  MIC: 0.48 µM (≈ 0.155 µg/mL)
E. coli JM105 [2]; chloramphenicol 0.0048 μM
  Mediated Chronocoulometric Respiration Activity Remaining, Percent: 95%
E. coli JM105 [2]; chloramphenicol 0.048 μM
  Mediated Chronocoulometric Respiration Activity Remaining, Percent: 102%
E. coli JM105 [2]; chloramphenicol 0.48 μM
  Mediated Chronocoulometric Respiration Activity Remaining, Percent: 66%
E. coli JM105 [2]; chloramphenicol 4.8 μM
  Mediated Chronocoulometric Respiration Activity Remaining, Percent: 58%
E. coli JM105 [2]; chloramphenicol 48 μM
  Mediated Chronocoulometric Respiration Activity Remaining, Percent: 52%
E. coli JM105 [2]; chloramphenicol 480 μM
  Mediated Chronocoulometric Respiration Activity Remaining, Percent: 35%
E. coli JM105 [2]; chloramphenicol 4800 μM
  Mediated Chronocoulometric Respiration Activity Remaining, Percent: 5%
[3]
  activity against growth: active against the growth of this strain of Clostridium

## O=C(O)CN(CCN(CC(=O)O)CC(=O)O)CC(=O)O [EDTA, Ethylenediaminetetraacetate]
E. coli JM105 [4]; 5 mM EDTA, blank 38 +/− 2
  Charge, Average: 45 +/− 2 μC
E. coli JM105 [4]; 5 mM EDTA in 50 mM ferricyanide, 10 min at 37 C
  Charge: 46.3 μC and 43.1 μC and 45.2 μC and 43.3 μC

## Lysozyme: an enzyme that destroys cell walls and is used extensively in protein purification procedures
E. coli JM105 [4]; lysozyme solution 1.5 mg/mL, blank 32 +/− 3
  Charge, Average: 22 +/− 1 μC
E. coli JM105 [4]; lysozyme, conditions of Example 3
  loss of activity: 31%
E. coli JM105 [4]; lysozyme solution 1.5 mg/mL, 15 min at 0 C, then 10 min at 37 C with 50 mM ferricyanide
  Charge: 21.1 μC and 22.8 μC and 21.6 μC
[1]; final concentration 0.57 mg/mL
  Mediated Chronocoulometric Respiratory Activity Remaining, Percent: 80%
[1]; lysozyme, conditions of Example 5
  loss of activity: 20%

— patent US6391577B1, “Rapid electrochemical assay for antibiotic and cytotoxic drug susceptibility in microorganisms” (priority 1999, dated 2002)
